In experiment [1] the test system is J774 A.1 cells. Briefly: FACS competition assay: FITC-rBAG3 binding to J774 A.1 cells with BAG3 peptides or F(ab′)2 fragments. The format is cell-based, murine. The settings on record: 14 nM FITC-BAG3, 625 nM of BAG3 peptides. As for the experimental part:
(§1) We addressed the functional significance of BAG3 release by cardiomyocytes. […] Therefore we investigated whether BAG3 could interact with blood cells. […] BAG3 binding to macrophages was specifically impaired by competing BAG3 peptides or by BAG3-sequestering F(ab′)2 fragments from anti-BAG3 monoclonal antibodies (Table I). In particular J774 cells were incubated with 14 nM FITC-BAG3 protein and with 625 nM of BAG3 peptides (peptide 1, peptide 2, peptide 3, peptide 4 or scrambled peptide) or with 420 nM of F(ab′)2 fragments from anti-BAG3 monoclonal and polyclonal antibodies (mouse monoclonal AC1, AC2 and rabbit polyclonal TOS2). F(ab′)2 fragments from mouse IgG or F(ab′)2 fragments from rabbit IgG were used as a negative control.
Competition—J774 A.1 cells (2.5×105/100 μl) were incubated with 625 nM of BAG3 peptides (peptide 1, peptide 2, peptide 3, peptide 4 or scrambled peptide) or with 420 nM of F(ab′)2 fragments from anti-BAG3 monoclonal and polyclonal antibodies (mouse monoclonal AC1, AC2 and rabbit polyclonal TOS2) or F(ab′)2 fragments from mouse IgG or F(ab′)2 fragments from rabbit IgG in PBS containing 2% FBS+0.1% NaN3 for 30 min on ice. After incubation the cells were washing with PBS and then were incubated with of FITC-rBAG3 protein (14 nM), in PBS containing 2% FBS+0.1% NaN3 for 30 min at 4° C. in the dark. After washing with PBS, the cells were resuspended in PBS+2% FBS+0.1% NaN3 and analyzed by flow cytometer (BD Biosciences).

Experiment [2] concerns J774 A.1 cells. Briefly: FACS analysis of FITC-rBAG3 binding to J774 A.1 macrophages. The format is cell-based, murine. As for the experimental part:
FIG. 3B: BAG3 binds macrophages. J774 A1 macrophages (1×10^6 cells/ml) were incubated with different concentration of Fitc-BAG3 protein (7, 14 and 70 nm). FITC-BSA (70 nM) was used as a negative control (grey). Cells fluorescence was analyzed by flow cytometry.
as §1
rBAG3 binding—J774 A.1 cells were blocked with 2% FBS+0.1% NaN3 in PBS for 15 min on ice and incubated (2.5×105/100 μl) with different concentration of FITC-rBAG3 protein (7, 14 and 70 nm) or FITC-BSA (70 nM) in PBS containing 2% FBS+0.1% NaN3 for 30 min at 4° C. in the dark. After washing with PBS, the cells were resuspended in PBS+2% FBS+0.1% NaN3 and analyzed with a FACScan (BD Biosciences) flow cytometer.
(In general: A flow cytometer gives signals particle by particle.)

Another experiment concerns HCMa cells. Briefly: Confocal direct fluorescence, rBAG3-FITC binding to cardiomyocytes. The format is cell-based, human. The settings on record: FIG. 3A, result in words. From the text:
FIG. 3A: Confocal microscopy analysis of direct fluorescence performed for detection of rBAG3-FITC binding to HCMa cells (a, b, c) and J774 A1 cells (d, e, f, g, h, i). BAG3 recombinant protein and purified BSA (albumin from bovine serum purchased from SIGMA) were conjugated to FITC using the FluoroTag FITC Conjugation Kit purchased from SIGMA following the manufacturer instructions. Equal amount of rBAG3-FITC (b, e) and BSA-FITC (h) proteins, calculated following the manufacturer instructions, were added in HCM and J774 A1 culture media with 0.1% NaN3 […] (a, d, g). Cells were analyzed by a Zeiss LSM confocal microscope. Merged images are shown in c, f and i.
We addressed the functional significance of BAG3 release by cardiomyocytes. […]
Cells were cultured on coverslips in six-well plates to 60-70% confluence and equal amount of rBAG3-FITC and BSA-FITC proteins were added in HCMa and J774 A1 culture media with 0.1% NaN3 for 1 h. […] Samples were analyzed using a confocal laser scanning microscope (Zeiss LSM confocal microscope, Germany). […] For production of figures, brightness and contrast of images were adjusted by taking care to leave a light cellular fluorescence background for visual appreciation of the lowest fluorescence intensity features and to help comparison among the different experimental groups. […]

Experiment [3] deals with J774 A1 macrophages. The experiment can be described thus: Cox-2 and iNOS levels in J774 A1 macrophages incubated with BAG3 (western blot). The format is cell-based, murine. The settings on record: BAG3-treated macrophages, 20 hours, FIG. 3C panel a. As for the experimental part: FIG. 3C panel a—Analysis of Cox-2 and iNOS levels in J774 A1 macrophages incubated with BAG3. J774 A1 cells at 80% confluency were incubated with control medium, BSA, LPS or rBAG3, for 20 hours. Polymixin was added where indicated to verify that the effects of E. coli-derived rBAG3 were independent from the presence of contaminating endotoxin. Cox-2 and iNOS expression were analyzed in cell lysates by Western blotting. To explore functional consequences of BAG3 binding to macrophages, we tested the effect of recombinant BAG3 on the expression of inducible nitric oxide synthase (iNOS) and cyclooxygenase (Cox)-2 in the cells. As shown in FIG. 3C panel a the levels of those enzymes were enhanced in BAG3-treated macrophages. […] Soluble proteins were collected after a centrifugation at 10,000 g for 15 min and their amount was determined by Bradford assay (Bio-Rad, Hercules, Calif.). […] Immunoreactivity was detected by sequential incubation with horseradish peroxidase-conjugated secondary antibodies purchased from Pierce (Rockford, Ill.) and ECL detection reagents purchased from Amersham Life Sciences Inc. (Arlington Heights, Ill., USA).
(A western blot detects proteins with antibodies after separation by electrophoresis.)

Experiment [4] concerns J774 A1 macrophages. The experiment can be described thus: Nitrite release from J774 A1 macrophages (Griess reaction). The format is cell-based, murine. The settings on record: J774 A1, 24 hours, FIG. 3C panel b. As for the experimental part: FIG. 3C panel b—Analysis of nitrite release from J774 A1 macrophages incubated with BAG3. J774 A1 cells at 80% confluency were incubated with control medium, BSA, LPS or rBAG3 for 24 hours. 100 μl of supernatants from each sample were incubated with 100 μl of Griess reagent; the optical density at 550 nm (OD550) was measured with a Beckman DU62 spectrophotometer. Nitrite concentration was evaluated by comparing the OD550 of the sample with that of a standard curve of sodium nitrite. Nitrite content (NO2^−), a stable metabolite of NO released by cells in the culture supernatant, was measured in J774 A.1 cells (5×104/in 96-well microplates) treated with LPS (10 ng/ml) or with rBAG3 (7, 14 and 28 nM) or BSA (28 nM) for 24 hours in absence or presence of polymyxin B sulfate (Sigma-Aldrich, St. Louis, Mo., USA) 5 μg/ml. NO2^− amounts were measured by Griess reaction. Briefly, 100 μL of cell culture medium were mixed with 100 μL of Griess reagent—equal volumes of 1% (w:v) sulphanilamide in 5% (v:v) phosphoric acid and 0.1% (w:v) naphtylethylenediamine-HCl—and incubated at room temperature for 10 min, and then the absorbance was measured at 550 nm in a microplate reader Titertek (Dasit, Cornaredo, Milan, Italy). The amount of NO2- (as μM) in the samples was calculated from a sodium nitrite standard curve.
Background: The Griess reaction detects nitrite, a stable product of nitric oxide.

Experiment [5] has as its system J774 A1 macrophages. The experiment can be described thus: IL-6 release from J774 A1 macrophages (ELISA). The format is cell-based, murine. The settings on record: J774 A1, FIG. 3C panel c. As for the experimental part:
FIG. 3C panel c—Analysis of IL-6 release from J774 A1 macrophages incubated with BAG3. J774 A1 cells at 80% confluency macrophages were incubated with control medium, BSA, LPS or recombinant BAG3 for 5 hours. BAG3 peptides (peptide 1, peptide 2, peptide 3, peptide 4 or scrambled peptide) 625 nM were added where indicated to verify their ability to block BAG3 activity. IL-6 production was measured in cell culture medium using an ELISA test. IL-6 concentration was evaluated by comparing the OD of the sample with that of a standard curve of recombinant IL-6. IL6 was measured in supernatant of J774 A.1 cells (5×10^4/in 96-well microplates) treated with LPS (10 ng/ml) or with rBAG3 (14 nM) or BSA (14 nM) for 10 or 20 hours in absence or presence of polymyxin B sulfate (5 μg/ml). After treatment 50 μL of cell culture medium were collected and analyzed in triplicate with a mouse IL6 Kit (eBioscience).

For “DKGKKNAGNAEDPHT (listed as Homo sapiens) [Pep3, 13]”, in the experiment with J774 A.1 cells [1], the “Competiton assays % inhibition” value stood at 47.2% and the “Competiton assays % of positive cells (±S.D.)” value is 5.86 (±0.43) %.
For “DRDPLPPGWEIKIDPQ (listed as Homo sapiens) [Pep1, 11]” the same measures were 98.4% and 0.18 (±0.05) %.
Regarding “FITC-BSA: purified albumin from bovine serum conjugated to FITC, negative control”, the “FITC-BSA % of positive cells (±S.D.)” value in the experiment on J774 A.1 cells [2] (J774 cells, flow cytometry, negative control) is listed as 4.04 (±0.06) %.
For the substance “FITC-rBAG3: BAG3 recombinant protein conjugated to FITC”, the “binding to macrophages of the cell line J774” value in the experiment with J774 A.1 cells [2] (FIG. 3B, result in words) is “bound”. The “FITC-rBAG3 % of positive cells (±S.D.)” value with J774 A.1 cells [2] (J774 cells, flow cytometry) is recorded as 15.7 (±0.45) %. Besides, the “binding to the cardiomyocyte surface” value in the experiment with HCMa cells is given as “did not apparently bind”.
Regarding “NPSSMTDTPGNPAAP (listed as Homo sapiens) [Pep4, 14]”, in the experiment with J774 A.1 cells [1], the “Competiton assays % inhibition” value was 93.8% and the “Competiton assays % of positive cells (±S.D.)” value is recorded as 0.68 (±0.20) %.
For “SSPKSVATEERAAPS (listed as Homo sapiens) [Pep2, 12]” the same measures were 89.1% and 1.21 (±0.63) %.
As to “recombinant BAG3: E. coli-derived recombinant BAG3 protein; human BAG3 is SEQ ID NO:15”, the “expression of inducible nitric oxide synthase (iNOS) and cyclooxygenase (Cox)-2” value in the experiment on J774 A1 macrophages [3] is “enhanced”. For the same substance, the release of nitrite entry in the experiment with J774 A1 macrophages [4] is “induced the release”. The “release of interleukin (IL)-6” value in the experiment with J774 A1 macrophages [5] is recorded as “induced the release”.
